Results published in patent US20260216207A1, “7-CARBONYLSTAUROSPORINE DERIVATIVE, PREPARATION METHOD THEREFOR, AND USE THEREOF” (HANGZHOU KEXING BIOCHEM. CO., LTD., priority 2023, published 2026).

Columns and labels:
ROCK2 = ROCK2 (Homo sapiens, UniProt O75116); experiment: HTRF KinEASE kinase assay, ROCK2 (kinase selectivity); type: biochemical; settings: HTRF KinEASE kit, 3 duplicate wells; read-out: ROCK2 IC50
Experimental: (§1) Inhibitory activities against PIM-1, TRKA, TRKB, FLT3, PKCδ, PKCε, PKCη, PAK4, PLK1, ROCK2, and IKKβ kinases were all determined using an HTRF®KinEASE™ kinase assay kit based on a time-resolved fluorescence technology. 7-carbonylstaurosporine (7OSTA) and TP-3654 were used as positive controls, and 3 duplicate wells were set in parallel. […] A signal ratio was calculated as F2/F1×10000, and then an IC50 value was calculated using Graphpad Prism 8 software.

FLT3 = target: T1, FLT3 (Homo sapiens, UniProt P36888); experiment: HTRF KinEASE kinase assay, FLT3 (kinase selectivity); type: biochemical; settings: HTRF KinEASE kit, 3 duplicate wells; read-out: FLT3 IC50
T1 sequence (P36888 27-993): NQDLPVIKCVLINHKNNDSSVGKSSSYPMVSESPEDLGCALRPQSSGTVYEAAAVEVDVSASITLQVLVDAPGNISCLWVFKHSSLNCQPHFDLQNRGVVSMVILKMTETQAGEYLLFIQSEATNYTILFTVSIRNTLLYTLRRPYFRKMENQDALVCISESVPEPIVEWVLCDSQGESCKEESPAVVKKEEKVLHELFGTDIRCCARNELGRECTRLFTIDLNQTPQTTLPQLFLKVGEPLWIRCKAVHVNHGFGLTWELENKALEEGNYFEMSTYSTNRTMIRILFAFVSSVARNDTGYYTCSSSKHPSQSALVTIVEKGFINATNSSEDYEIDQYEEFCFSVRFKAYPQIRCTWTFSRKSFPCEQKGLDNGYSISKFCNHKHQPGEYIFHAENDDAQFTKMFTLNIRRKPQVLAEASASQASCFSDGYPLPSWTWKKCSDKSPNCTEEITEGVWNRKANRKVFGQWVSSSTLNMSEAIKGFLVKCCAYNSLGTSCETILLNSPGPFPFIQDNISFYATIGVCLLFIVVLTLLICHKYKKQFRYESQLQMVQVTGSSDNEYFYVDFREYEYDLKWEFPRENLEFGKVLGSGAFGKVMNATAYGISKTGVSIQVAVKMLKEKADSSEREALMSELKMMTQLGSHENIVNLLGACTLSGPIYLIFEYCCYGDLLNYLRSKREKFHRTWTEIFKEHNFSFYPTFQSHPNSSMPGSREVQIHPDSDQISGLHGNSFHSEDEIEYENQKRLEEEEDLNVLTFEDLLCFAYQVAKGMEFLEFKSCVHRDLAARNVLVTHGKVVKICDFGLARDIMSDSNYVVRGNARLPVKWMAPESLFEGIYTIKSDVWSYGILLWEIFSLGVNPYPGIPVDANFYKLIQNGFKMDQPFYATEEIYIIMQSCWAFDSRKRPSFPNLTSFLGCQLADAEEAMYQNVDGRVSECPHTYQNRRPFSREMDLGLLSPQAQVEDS
Experimental: as §1

Chain of ROCK2 (O75116 whole entry, species assumed): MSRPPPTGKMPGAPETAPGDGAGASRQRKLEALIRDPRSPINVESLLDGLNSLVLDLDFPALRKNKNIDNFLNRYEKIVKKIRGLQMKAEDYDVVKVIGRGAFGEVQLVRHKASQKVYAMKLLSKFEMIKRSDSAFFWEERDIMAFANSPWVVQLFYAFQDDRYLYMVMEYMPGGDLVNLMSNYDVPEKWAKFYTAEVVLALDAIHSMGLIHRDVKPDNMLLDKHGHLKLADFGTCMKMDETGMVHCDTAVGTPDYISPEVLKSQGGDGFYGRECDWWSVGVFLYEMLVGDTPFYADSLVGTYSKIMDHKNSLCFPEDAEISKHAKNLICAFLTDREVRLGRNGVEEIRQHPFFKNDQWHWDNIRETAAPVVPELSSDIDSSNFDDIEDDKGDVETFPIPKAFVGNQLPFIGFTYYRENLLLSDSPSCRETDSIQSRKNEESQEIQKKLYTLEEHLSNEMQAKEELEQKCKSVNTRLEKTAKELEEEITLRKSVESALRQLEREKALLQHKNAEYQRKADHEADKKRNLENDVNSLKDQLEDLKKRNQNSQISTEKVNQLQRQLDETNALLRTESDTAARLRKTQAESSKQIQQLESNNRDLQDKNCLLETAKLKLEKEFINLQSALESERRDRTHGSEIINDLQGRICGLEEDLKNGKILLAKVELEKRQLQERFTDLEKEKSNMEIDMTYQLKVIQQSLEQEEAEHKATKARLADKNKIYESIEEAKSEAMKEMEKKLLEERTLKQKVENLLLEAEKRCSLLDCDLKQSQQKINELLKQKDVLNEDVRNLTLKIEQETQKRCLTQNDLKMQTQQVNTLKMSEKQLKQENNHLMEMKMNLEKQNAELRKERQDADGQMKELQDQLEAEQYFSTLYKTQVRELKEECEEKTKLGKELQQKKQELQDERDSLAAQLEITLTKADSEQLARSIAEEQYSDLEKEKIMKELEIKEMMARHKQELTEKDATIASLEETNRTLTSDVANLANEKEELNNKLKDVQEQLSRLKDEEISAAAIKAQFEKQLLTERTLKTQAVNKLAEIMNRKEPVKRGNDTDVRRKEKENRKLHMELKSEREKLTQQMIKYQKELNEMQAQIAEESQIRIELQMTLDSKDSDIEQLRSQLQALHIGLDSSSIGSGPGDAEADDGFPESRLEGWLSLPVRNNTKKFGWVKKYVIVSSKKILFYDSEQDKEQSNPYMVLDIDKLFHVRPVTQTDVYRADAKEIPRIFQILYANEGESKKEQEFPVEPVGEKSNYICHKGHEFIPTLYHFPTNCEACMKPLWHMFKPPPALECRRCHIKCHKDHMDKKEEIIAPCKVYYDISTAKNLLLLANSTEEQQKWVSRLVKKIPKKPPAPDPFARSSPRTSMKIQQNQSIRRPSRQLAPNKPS

IC50 (ROCK2): 562 nM
IC50 (FLT3): 5.3 nM
SMILES: CO[C@@H]1[C@H](N(C)C(=O)CCC(=O)NO)C[C@H]2O[C@]1(C)n1c3ccccc3c3c4c(c5c6ccccc6n2c5c31)C(=O)NC4=O [Compound 17]
